# Measurements published in US20240025908A1, “COMPOUND USED AS KINASE INHIBITOR AND USE THEREOF” (TYK MEDICINES, INC., priority 2020, published 2024).
# Legend:
# [1] = target: ALK (Homo sapiens (Human), UniProt Q9UM73); assay: Radio-tagged HotSpot kinase assay, ALK; type: biochemical
# Method: (§1) Inhibition of protein kinase activity by compounds was carried out on the Radio-tagged HotSpot kinase experimental platform of Reaction Biology Corporation. Fresh reaction solution (20 mM TIEPESpH 7.5, 10 mM MgCl2, 1 mM EGTA, 0.02% Brij35, 0.02 mg/ml BSA, 0.1 mM Na3VO4, 2 mM DTT, […]) containing corresponding substrates was prepared, cofactor and kinase to be tested were added into the above solution and mixed gently. Echo550 pipetting system was used to add the test compound DMSO solution to each well (the blank control group was added with the corresponding volume of DMSO), then 33P-ATP (with a final specific activity of 0.01 μCi/μL) was added to start the reaction. The reaction solution was incubated at room temperature for 120 minutes. Transferred the incubated reaction solution to P81 ion exchange chromatographic paper (Whatman #3698-915), eluted with […] phosphoric acid solution, and the amount of radioactive phosphorylated substrate remaining on the chromatographic paper was detected.
# [2] = target: TRKA (Homo sapiens (Human), UniProt P04629); assay: Radio-tagged HotSpot kinase assay, TRKA; type: biochemical
# Sequence of TRKA (P04629 33-796): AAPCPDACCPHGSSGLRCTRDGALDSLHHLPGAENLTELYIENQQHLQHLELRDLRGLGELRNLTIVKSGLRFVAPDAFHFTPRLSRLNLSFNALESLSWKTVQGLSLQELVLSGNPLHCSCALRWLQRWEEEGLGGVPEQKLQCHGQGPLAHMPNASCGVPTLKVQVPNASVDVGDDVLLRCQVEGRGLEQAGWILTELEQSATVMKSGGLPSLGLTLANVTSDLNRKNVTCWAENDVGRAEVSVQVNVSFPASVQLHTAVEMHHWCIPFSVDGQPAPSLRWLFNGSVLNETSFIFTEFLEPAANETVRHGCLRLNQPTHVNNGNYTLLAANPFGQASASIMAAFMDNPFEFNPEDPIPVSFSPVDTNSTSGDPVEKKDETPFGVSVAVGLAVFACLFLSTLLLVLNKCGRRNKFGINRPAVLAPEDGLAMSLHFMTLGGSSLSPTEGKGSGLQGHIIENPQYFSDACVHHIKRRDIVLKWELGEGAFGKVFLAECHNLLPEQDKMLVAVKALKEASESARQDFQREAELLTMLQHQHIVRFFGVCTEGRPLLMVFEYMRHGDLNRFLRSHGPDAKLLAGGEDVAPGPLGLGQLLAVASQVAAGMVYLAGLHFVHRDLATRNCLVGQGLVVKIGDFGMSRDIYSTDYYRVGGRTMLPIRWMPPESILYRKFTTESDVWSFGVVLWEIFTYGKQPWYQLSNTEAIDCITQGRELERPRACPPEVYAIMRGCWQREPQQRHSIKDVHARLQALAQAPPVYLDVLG
# Method: as §1
# [3] = tested on: Ba/F3-CD74-ROS1-G2032R; assay: Inhibition of cell proliferation (CellTiter-Glo), Ba/F3-CD74-ROS1-G2032R; type: cell-based; settings: 72 hours
# Method: (§2) The experiment of inhibiting cell proliferation by compounds was carried out in Hefei Zhongkeprecedo Biomedical Technology Co., Ltd. The Ba/F3 engineered cell line stably transfected with different kinase genes was recovered with RPMI 1640 medium (Biological Industries, Israel)+10% fetal bovine serum (Biological Industries, Israel)+1% double antibody (Penicillin Streptomycin solution, Coring, USA) and cultivated two generations. The logarithmic growth phase cell suspension was taken, and 2000 cells/well were inoculated on 96-well white cell culture plate (Corning 3917, NY, USA) with a volume of 95 μL per well. 5 μL of 20×DMSO solution of the compound to be tested was added into the culture plate containing 95 μL of cell suspension. The blank control group was added with corresponding volume of DMSO, mixed well, and incubated in a 5% CO2 incubator at 37° C. for 72 hours. CellTiter-Glo was used to detect cell viability.
# [4] = tested on: Ba/F3-TEL-ALK-G1202R; assay: Inhibition of cell proliferation (CellTiter-Glo), Ba/F3-TEL-ALK-G1202R; type: cell-based; settings: 72 hours
# Method: as §2
# [5] = target: ROS1 (G2032R) (Homo sapiens (Human), UniProt P08922, G2032R); assay: Radio-tagged HotSpot kinase assay, ROS1 (G2032R); type: biochemical
# Sequence of ROS1 (G2032R) (P08922 28-2347 G2032R): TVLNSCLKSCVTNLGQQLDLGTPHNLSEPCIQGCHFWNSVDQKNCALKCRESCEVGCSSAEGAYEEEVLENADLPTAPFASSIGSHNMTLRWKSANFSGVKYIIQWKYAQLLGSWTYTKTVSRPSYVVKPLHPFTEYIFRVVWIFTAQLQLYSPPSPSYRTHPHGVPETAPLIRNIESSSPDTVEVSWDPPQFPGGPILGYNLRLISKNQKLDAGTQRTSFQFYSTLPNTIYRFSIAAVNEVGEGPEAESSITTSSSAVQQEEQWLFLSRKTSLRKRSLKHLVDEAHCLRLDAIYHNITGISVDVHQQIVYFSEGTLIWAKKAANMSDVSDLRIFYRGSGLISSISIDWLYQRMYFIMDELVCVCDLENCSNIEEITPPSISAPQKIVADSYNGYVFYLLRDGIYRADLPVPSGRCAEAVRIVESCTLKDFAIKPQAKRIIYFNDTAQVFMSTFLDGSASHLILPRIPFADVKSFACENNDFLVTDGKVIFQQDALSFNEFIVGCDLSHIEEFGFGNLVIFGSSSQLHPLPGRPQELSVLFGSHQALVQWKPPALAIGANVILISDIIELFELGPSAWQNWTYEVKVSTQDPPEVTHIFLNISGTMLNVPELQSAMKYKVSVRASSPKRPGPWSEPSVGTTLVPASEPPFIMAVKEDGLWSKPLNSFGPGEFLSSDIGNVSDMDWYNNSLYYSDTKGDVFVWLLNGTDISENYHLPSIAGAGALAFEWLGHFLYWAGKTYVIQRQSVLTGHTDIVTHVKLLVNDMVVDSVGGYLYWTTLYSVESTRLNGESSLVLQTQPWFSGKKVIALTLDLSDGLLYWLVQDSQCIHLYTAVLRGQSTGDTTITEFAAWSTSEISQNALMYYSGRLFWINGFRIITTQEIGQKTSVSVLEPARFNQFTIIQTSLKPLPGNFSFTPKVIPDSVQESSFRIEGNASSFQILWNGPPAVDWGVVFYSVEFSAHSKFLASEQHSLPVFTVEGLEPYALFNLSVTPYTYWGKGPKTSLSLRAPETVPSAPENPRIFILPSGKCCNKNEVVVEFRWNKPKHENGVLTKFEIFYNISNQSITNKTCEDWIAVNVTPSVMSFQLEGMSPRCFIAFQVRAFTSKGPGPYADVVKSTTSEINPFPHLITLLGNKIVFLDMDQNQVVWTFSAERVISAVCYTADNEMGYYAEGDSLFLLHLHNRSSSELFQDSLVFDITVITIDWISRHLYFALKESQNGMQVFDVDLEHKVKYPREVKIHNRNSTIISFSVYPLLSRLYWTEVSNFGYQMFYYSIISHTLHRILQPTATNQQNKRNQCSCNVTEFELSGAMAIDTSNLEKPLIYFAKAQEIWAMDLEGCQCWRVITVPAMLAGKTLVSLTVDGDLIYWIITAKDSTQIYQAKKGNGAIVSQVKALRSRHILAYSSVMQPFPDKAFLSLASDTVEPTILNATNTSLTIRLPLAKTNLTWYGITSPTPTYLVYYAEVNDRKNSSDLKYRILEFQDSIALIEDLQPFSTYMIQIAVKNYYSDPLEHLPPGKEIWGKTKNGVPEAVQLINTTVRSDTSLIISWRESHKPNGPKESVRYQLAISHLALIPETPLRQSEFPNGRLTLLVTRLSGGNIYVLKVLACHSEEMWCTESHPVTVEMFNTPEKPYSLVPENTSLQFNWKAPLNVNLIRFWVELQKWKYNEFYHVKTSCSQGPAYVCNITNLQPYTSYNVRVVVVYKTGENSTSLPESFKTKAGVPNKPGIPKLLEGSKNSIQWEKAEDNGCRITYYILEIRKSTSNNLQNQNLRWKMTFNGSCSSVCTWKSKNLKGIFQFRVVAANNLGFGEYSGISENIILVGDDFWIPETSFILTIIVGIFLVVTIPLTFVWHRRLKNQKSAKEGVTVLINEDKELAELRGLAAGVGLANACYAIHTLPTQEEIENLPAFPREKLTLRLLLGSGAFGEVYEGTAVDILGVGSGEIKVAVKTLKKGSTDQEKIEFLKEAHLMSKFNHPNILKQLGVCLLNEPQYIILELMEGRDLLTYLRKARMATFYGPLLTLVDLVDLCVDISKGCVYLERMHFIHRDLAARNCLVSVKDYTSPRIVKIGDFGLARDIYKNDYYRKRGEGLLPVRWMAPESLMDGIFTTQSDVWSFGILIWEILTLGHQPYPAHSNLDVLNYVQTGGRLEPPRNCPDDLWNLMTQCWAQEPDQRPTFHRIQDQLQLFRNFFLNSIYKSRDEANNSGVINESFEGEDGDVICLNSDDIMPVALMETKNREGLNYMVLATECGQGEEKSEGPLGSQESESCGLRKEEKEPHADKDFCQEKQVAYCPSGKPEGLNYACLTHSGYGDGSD
# Method: as §1
# [6] = target: ROS1 (Homo sapiens (Human), UniProt P08922); assay: Radio-tagged HotSpot kinase assay, ROS1; type: biochemical
# Sequence of ROS1 (P08922 28-2347): as the sequence (P08922 28-2347 G2032R) above, with R2005G counted along it
# Method: as §1
# [7] = target: TRKA (G677C) (Homo sapiens, UniProt P04629, G667C); assay: Radio-tagged HotSpot kinase assay, TRKA (G677C); type: biochemical; settings: read-out: TRKA (G677C) (IC50/nM)
# Sequence of TRKA (G677C) (P04629 33-796 G667C limits assumed): as the sequence (P04629 33-796) above, with G635C counted along it
# Method: as §1
# [8] = target: ALK (G1202R) (Homo sapiens (Human), UniProt Q9UM73, G1202R); assay: Radio-tagged HotSpot kinase assay, ALK (G1202R); type: biochemical
# Sequence of ALK (G1202R) (Q9UM73 19-1620 G1202R): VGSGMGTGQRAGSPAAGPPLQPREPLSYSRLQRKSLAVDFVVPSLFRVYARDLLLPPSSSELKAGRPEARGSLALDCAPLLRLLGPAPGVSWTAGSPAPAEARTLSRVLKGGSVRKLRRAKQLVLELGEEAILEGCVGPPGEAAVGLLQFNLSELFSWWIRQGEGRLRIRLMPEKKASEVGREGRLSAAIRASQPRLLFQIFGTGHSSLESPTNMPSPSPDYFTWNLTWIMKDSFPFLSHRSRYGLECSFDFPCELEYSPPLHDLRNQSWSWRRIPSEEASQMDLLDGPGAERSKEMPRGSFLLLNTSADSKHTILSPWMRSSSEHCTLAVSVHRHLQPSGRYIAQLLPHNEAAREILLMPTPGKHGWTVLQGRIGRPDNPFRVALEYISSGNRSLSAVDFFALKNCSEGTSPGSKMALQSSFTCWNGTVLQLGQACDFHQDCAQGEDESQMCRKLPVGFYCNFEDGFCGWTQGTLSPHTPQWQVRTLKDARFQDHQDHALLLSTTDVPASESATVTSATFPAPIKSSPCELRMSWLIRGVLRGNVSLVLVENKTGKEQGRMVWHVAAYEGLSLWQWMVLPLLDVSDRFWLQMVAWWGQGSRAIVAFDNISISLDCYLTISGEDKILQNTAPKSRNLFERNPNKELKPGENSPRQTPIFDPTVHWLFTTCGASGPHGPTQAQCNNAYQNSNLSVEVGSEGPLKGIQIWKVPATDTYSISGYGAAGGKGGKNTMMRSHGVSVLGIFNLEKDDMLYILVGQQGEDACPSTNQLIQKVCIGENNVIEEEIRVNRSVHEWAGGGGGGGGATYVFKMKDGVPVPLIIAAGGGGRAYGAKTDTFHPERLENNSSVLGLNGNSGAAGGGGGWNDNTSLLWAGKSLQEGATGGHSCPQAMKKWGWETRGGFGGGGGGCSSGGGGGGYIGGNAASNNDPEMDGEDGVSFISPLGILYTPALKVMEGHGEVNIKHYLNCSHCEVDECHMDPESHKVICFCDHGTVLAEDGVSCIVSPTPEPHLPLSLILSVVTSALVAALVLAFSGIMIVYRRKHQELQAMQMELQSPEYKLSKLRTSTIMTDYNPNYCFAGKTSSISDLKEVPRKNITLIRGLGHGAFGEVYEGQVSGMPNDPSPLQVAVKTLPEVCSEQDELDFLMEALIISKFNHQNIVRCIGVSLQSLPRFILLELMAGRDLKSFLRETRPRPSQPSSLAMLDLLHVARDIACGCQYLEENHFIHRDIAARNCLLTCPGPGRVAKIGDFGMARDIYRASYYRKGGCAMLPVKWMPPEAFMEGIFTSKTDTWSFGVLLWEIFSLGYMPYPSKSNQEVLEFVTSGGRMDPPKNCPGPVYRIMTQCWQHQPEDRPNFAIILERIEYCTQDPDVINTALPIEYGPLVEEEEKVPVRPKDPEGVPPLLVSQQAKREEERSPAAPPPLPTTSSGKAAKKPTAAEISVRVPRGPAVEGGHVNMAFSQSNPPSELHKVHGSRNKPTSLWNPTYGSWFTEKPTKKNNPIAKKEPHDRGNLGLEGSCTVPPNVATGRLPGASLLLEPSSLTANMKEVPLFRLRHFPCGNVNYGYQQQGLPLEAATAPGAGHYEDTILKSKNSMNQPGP
# Method: as §1
# [9] = tested on: Ba/F3-LMNA-NTRK1-G595R; assay: Inhibition of cell proliferation (CellTiter-Glo), Ba/F3-LMNA-NTRK1-G595R; type: cell-based; settings: 72 hours
# Method: as §2
# Sequence of ALK (Q9UM73 19-1620): as the sequence (Q9UM73 19-1620 G1202R) above, with R1184G counted along it
smiles,measurement,setting,value
C[C@@H](Nc1ccn2ncc(C3=NOCCN3)c2n1)c1cc(F)ccc1OC(F)F [Example 9],IC50,[1],0.5 to 5 nM
same,IC50,[2],< 0.5 nM
same,IC50,[3],31.6 nM
same,IC50,[4],75.6 nM
same,IC50,[5],< 0.5 nM
same,IC50,[6],< 0.5 nM
same,IC50,[7],< 0.5 nM
same,IC50,[8],5 to 50 nM
same,IC50,[9],6.1 nM
